SMILES strings stand for the structures.

In general, inhibition refers to the percentage by which the read-out fell short of the control.

In experiment [1] the target is T1, Polyunsaturated fatty acid 5-lipoxygenase (Homo sapiens) (UniProt P09917).
T1 sequence (whole entry): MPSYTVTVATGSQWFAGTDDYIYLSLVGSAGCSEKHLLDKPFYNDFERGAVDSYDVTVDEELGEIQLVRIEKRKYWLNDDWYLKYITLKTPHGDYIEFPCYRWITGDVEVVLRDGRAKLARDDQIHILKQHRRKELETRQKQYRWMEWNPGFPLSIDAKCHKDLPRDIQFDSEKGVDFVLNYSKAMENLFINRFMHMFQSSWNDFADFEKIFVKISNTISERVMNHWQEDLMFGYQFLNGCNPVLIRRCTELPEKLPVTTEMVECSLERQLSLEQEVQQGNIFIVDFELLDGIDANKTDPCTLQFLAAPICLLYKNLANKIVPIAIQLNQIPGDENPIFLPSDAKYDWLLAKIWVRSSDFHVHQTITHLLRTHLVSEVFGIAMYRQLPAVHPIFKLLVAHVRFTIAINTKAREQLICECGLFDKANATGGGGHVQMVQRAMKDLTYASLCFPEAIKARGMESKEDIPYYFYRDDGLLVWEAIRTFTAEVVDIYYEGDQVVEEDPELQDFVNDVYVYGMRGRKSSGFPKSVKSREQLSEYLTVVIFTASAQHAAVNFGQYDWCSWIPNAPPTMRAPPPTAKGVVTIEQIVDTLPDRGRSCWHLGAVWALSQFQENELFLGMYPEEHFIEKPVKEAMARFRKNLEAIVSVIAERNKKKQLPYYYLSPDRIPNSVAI
The experiment is described as follows: Compound was tested for inhibition of 5-lipoxygenase at 50 uM; NI means no inhibition was observed.

The test system of experiment [2] is Monocyte. The experiment is described as follows: Compound was tested for inhibition of LTC4 release in the human monocytic cell line at 30 uM. Format: functional.
The test system of experiment [3] is Monocyte. Kind of experiment: Compound was tested for inhibition of LTC4 release in the human monocytic cell line; NI means no inhibition observed. The format is functional, cell-based.

On to `CCCCCCCCCCCCCCCCCCOCC(CCc1nnn[nH]1)NC(C)=O` (centres undefined), for which, in experiment [1], the inhibition entry was “No inhibition”. The same compound yielded an inhibition at 30 µM in the experiment on Monocyte [2] of 75%.
As for `CCCCCCCCOC[C@H](COP(=O)(O)OCCN)OP(=O)(O)CCCCCCC`, the inhibition result in the experiment on Monocyte [3] was “No inhibition”.
For `CCCCCCCCCCCCC(=O)NC(COCCC)COP(=O)(O)OCCO` (centres undefined), the inhibition entry with Monocyte [3] was “No inhibition”.

For the origin of these results see ChEMBL document CHEMBL1130442, “Tetrazole is an effective Sn-3 phosphate replacement in substrate analog inhibitors of 14 kDa phospholipase A2” (Bioorg Med Chem Lett, 1997).
